In ChEMBL document CHEMBL5236615, “Discovery of Novel N-Heterocyclic-Fused Deoxypodophyllotoxin Analogues as Tubulin Polymerization Inhibitors Targeting the Colchicine-Binding Site for Cancer Treatment” (J Med Chem, 2022):
Converted amounts (≈) assume the structure as drawn. The source made the active and inactive calls. No cut-off for these calls is given here.

Assays:
Tubulin (Homo sapiens) [1] = target: T1, Tubulin (Homo sapiens) (UniProt P68371+Q9H4B7+P0DPH7+P68366+Q13509+Q71U36+P04350+Q3ZCM7+P07437+P68363+Q9BQE3+Q6PEY2+Q13885+Q9BVA1+Q9BUF5); experiment: Inhibition of [3H]colchicine binding to tubulin (unknown origin) at 5 uM by competition scintillation proximity assay relative to control; assay type: protein-complex assay
Tubulin = Tubulin (Sus scrofa, UniProt P02554+P02550); experiment: Binding affinity to porcine brain tubulin assessed as changes in the fluorescence incubated for 10 mins tryptophan-based binding assay
HUVEC = experiment: Inhibition of angiogenesis in HUVEC cells assessed as broken tubular network at 5 nM after 6 hrs by phase contrast microscopy; assay type: functional, cell-based; details: Homo sapiens
MCF7 [2] = experiment: Induction of cell cycle arrest in human MCF7 cells assessed as arrest in G2/M phase by measuring accumulation of p21 at 5 to 25 nM incubated for 24 hrs by Western blotting analysis; assay type: functional, cell-based; details: dose 5-25 nM
[3] = Toxicity in Balb/c mouse xenografted with human MCF7 cells assessed as pathological changes in liver at 5 to 20 mg/kg, ip administered for every 2 days for 21 days by hematoxylin and eosin staining based analysis; assay type: organism-based; details: in vivo, 504 h, dose 5-20 mg/kg, time 21 day
MCF7 [4] = experiment: Induction of apoptosis in human MCF7 cells assessed as upregulation of p-Bim L protein expression at 5 to 20 nM measured after 24 hrs by Western blot analysis; assay type: functional, cell-based; details: dose 5-20 nM
MCF7 [5] = experiment: Antitumor activity against human MCF7 cells xenografted in Balb/c mouse assessed as tumor growth inhibition at 20 mg/kg, ip administered for every 2 days for 21 days; assay type: functional; details: MCF7, 504 h, time 21 day, read-out: TGI
[6] = Toxicity in Balb/c mouse xenografted with human MCF7 cells assessed as pathological changes in heart at 5 to 20 mg/kg, ip administered for every 2 days for 21 days by hematoxylin and eosin staining based analysis; assay type: organism-based; details: in vivo, 504 h, dose 5-20 mg/kg, time 21 day
A549/TxR [7] = experiment: Inhibition of colony formation of paclitaxel-resistant human A549/TxR cells at 20 nM measured after 24 hrs by crystal violet based assay; assay type: functional, cell-based
MCF7 [8] = experiment: Induction of apoptosis in human MCF7 cells assessed as upregulation of cleaved Caspase 3 at 5 to 20 nM measured after 24 hrs by Western blot analysis; assay type: functional, cell-based; details: dose 5-20 nM
MCF7 [9] = experiment: Induction of ROS generation in human MCF7 cells assessed as increase in intracellular ROS level measured after 12 hrs by DCFH-DA staining based assay; assay type: functional, cell-based; details: dose 5-20 nM
K562 = experiment: cells; details: Homo sapiens, K562, 72 h
Description: Antiproliferative activity against human K562 cells measured after 72 hrs by MTT assay

[10] = target: ATP-dependent translocase ABCB1 (Homo sapiens, UniProt P08183); experiment: Substrate activity at P-glycoprotein in paclitaxel-resistant human MCF/TxR cells assessed as intracellular Rhodamine-123 content at 10 uM incubated for 12 hrs by confocal microscopy; assay type: cell-based; details: mcf7/txr
ATP-dependent translocase ABCB1, sequence (P08183 whole entry): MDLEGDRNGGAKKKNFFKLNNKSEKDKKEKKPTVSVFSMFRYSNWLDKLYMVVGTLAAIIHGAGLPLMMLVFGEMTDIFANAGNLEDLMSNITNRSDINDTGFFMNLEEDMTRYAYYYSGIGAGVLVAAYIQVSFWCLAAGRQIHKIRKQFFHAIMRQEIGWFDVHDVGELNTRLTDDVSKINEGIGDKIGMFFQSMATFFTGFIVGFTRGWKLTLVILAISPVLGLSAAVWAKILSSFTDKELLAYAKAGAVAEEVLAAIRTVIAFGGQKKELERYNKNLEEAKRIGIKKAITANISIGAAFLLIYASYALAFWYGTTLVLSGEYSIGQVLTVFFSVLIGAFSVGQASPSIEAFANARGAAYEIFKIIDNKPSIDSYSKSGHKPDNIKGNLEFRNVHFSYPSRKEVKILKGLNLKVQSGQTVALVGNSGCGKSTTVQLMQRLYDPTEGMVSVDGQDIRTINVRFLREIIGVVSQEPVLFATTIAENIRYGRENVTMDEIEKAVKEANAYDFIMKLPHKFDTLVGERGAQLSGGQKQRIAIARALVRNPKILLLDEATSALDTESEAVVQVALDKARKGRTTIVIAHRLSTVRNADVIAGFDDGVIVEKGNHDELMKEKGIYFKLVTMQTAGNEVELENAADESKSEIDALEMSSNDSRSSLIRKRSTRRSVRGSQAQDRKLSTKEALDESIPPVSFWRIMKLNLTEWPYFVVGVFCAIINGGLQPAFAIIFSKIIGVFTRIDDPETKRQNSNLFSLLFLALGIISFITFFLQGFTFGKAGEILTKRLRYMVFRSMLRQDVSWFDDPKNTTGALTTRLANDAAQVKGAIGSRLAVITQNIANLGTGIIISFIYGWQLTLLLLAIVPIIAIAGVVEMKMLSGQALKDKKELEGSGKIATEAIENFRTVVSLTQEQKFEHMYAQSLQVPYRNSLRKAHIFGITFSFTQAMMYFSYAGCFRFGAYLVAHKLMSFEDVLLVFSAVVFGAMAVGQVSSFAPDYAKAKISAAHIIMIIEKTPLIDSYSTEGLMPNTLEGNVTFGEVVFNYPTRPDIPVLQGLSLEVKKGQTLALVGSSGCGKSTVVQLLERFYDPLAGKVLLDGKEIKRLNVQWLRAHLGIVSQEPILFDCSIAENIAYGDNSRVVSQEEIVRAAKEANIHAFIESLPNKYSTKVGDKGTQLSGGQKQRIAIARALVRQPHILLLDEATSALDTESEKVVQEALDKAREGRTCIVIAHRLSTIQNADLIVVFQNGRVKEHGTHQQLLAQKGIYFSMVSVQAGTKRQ

MCF7 [11] = experiment: Induction of apoptosis in human MCF7 cells assessed as upregulation of p-Bim EL protein expression at 5 to 20 nM measured after 24 hrs by Western blot analysis; assay type: functional, cell-based; details: dose 5-20 nM
MCF7 [12] = experiment: Induction of cell cycle arrest in human MCF7 cells assessed as upregulation of Bcl2 phosphorylation at […] at 5 to 20 nM measured after 24 hrs by Western blot analysis; assay type: functional, cell-based; details: dose 5-20 nM
HCT-116 = experiment: Antiproliferative activity against human HCT-116 cells measured after 72 hrs by MTT assay; assay type: functional, cell-based; details: HCT-116, 72 h
MCF7 [13] = experiment: Induction of apoptosis in human MCF7 cells incubated for 24 hrs by annexinV/PI assay; assay type: functional, cell-based; details: dose 5-25 nM
MCF7 [14] = experiment: Induction of cell cycle arrest in human MCF7 cells assessed as cdc25c activation at 5 to 25 nM incubated for 24 hrs by Western blotting analysis; assay type: functional, cell-based; details: dose 5-25 nM
[15] = Metabolic stability in human liver microsomes assessed as half life at 1 uM by LC/MS analysis; assay type: ADME, Microsome
MCF7 [16] = experiment: Antitumor activity against human MCF7 cells xenografted in Balb/c mouse assessed as decrease in CD31-positive tumor cells in tumor at 20 mg/kg, ip administered for every 2 days for 21 days; assay type: functional, organism-based; details: time 2.0 day
[17] = Toxicity in Balb/c mouse xenografted with human MCF7 cells assessed as pathological changes in kidney at 5 to 20 mg/kg, ip administered for every 2 days for 21 days by hematoxylin and eosin staining based analysis; assay type: organism-based; details: in vivo, 504 h, dose 5-20 mg/kg, time 21 day
MCF7 [18] = experiment: cells; details: Homo sapiens, MCF7, 72 h
Description: Antiproliferative activity against human MCF7 cells measured after 72 hrs by MTT assay

MCF7 [19] = experiment: Induction of apoptosis in human MCF7 cells assessed as upregulation of BaX protein expression at 5 to 20 nM measured after 24 hrs by Western blot analysis; assay type: functional, cell-based; details: dose 5-20 nM
MCF7 [20] = experiment: Antitumor activity against human MCF7 cells xenografted in Balb/c mouse assessed as tumor growth inhibition at 10 mg/kg, ip administered for every 2 days for 21 days; assay type: functional; details: MCF7, 504 h, time 21 day, read-out: TGI
[21] = Aqueous solubility in pH 7.4 PBS buffer by HPLC-UV analysis; assay type: physicochemical
[22] = Toxicity in Balb/c mouse xenografted with human MCF7 cells assessed as pathological changes in lung at 5 to 20 mg/kg, ip administered for every 2 days for 21 days by hematoxylin and eosin staining based analysis; assay type: organism-based; details: in vivo, 504 h, dose 5-20 mg/kg, time 21 day
MCF7 [23] = experiment: Induction of cell cycle arrest in human MCF7 cells assessed as mitosis by measuring accumulation of histone H3 ser10 phosphorylation incubated for 24 hrs by Western blotting analysis; assay type: functional, cell-based; details: dose 5-25 nM
[24] = Antiproliferative activity against paclitaxel-resistant human A549/TxR cells measured after 72 hrs by MTT assay; assay type: functional, cell-based
[25] = Metabolic stability in human liver microsomes assessed as intrinsic clearance at 1 uM by LC/MS analysis; assay type: ADME, Microsome; details: read-out: CLH
MCF7 [26] = experiment: Induction of cell cycle arrest in human MCF7 cells assessed as accumulation of cells at G2/M phase at 5 nM measured after 24 hrs by flow cytometry relative to control; assay type: functional
Tubulin (Homo sapiens) [27] = target: T1, Tubulin (Homo sapiens); experiment: Inhibition of [3H]colchicine binding to tubulin (unknown origin) at 1 uM by competition scintillation proximity assay relative to control; assay type: protein-complex assay
MCF7 [28] = experiment: Induction of cell cycle arrest in human MCF7 cells assessed as mitosis by measuring accumulation of histone H3 ser10 phosphorylation incubated for 24 hrs by immunofluorescence assay; assay type: functional, cell-based; details: dose 5-25 nM
MCF7 [29] = experiment: Induction of cell cycle arrest in human MCF7 cells assessed as accumulation of cells at G2/M phase at 10 nM measured after 24 hrs by flow cytometry relative to control; assay type: functional
MCF7 [30] = experiment: Antitumor activity against human MCF7 cells xenografted in Balb/c mouse assessed as tumor growth inhibition at 5 mg/kg, ip administered for every 2 days for 21 days; assay type: functional; details: MCF7, 504 h, time 21 day, read-out: TGI
MCF7 [31] = experiment: Antitumor activity against human MCF7 cells xenografted in Balb/c mouse assessed as decrease in Ki67-positive tumor cells in tumor at 20 mg/kg, ip administered for every 2 days for 21 days; assay type: functional, organism-based; details: time 2.0 day
A549/TxR [32] = experiment: Induction of apoptosis in paclitaxel-resistant human A549/TxR cells incubated for 24 hrs by annexinV/PI assay; assay type: functional, cell-based; details: dose 5-20 nM
[33] = Toxicity in Balb/c mouse xenografted with human MCF7 cells assessed as body weight loss at 5 to 20 mg/kg, ip administered for every 2 days for 21 days; assay type: organism-based; details: in vivo, 48 h, dose 5-20 mg/kg, time 2 day

| SMILES | inhibition (Tubulin (Homo sapiens) [1]) [%] | Kd (Tubulin) [nM] | Activity (HUVEC) | Activity (MCF7 [2]) | Activity [3] | Activity (MCF7 [4]) | inhibition in vivo at 20 mg/kg (MCF7 [5]) [%] | Activity [6] | inhibition (A549/TxR [7]) | Activity (MCF7 [8]) | Activity (MCF7 [9]) | IC50 (K562) [nM] | Activity [10] | Activity (MCF7 [11]) | Activity (MCF7 [12]) | IC50 (HCT-116) [nM] | Activity (MCF7 [13]) | Activity (MCF7 [14]) | half-life at 1 µM [15] [min] | Activity (MCF7 [16]) | also measured |
| --- | --- | --- | --- | --- | --- | --- | --- | --- | --- | --- | --- | --- | --- | --- | --- | --- | --- | --- | --- | --- | --- |
| COc1c(Cl)cc([C@@H]2c3cc4c(cc3C[C@H]3C(=O)NC(=O)N23)OCCO4)cc1Cl | 88.7 | 4490 | Dose-Dependent Effect | Active | Non-Toxic | Active | 85.1 | Non-Toxic | Active | Active | Dose-Dependent Effect | 6.3 | Not Active | Active | Active | 8.7 | Dose-Dependent Effect | Active | 26.1 | Active | Activity [17]: Non-Toxic; IC50 (MCF7 [18]): 9.2 nM; Activity (MCF7 [19]): Active; inhibition in vivo at 10 mg/kg (MCF7 [20]): 85.1%; solubility [21]: 2.85 µg/mL (≈ 6.55 µM); Activity [22]: Non-Toxic; Activity (MCF7 [23]): Dose-Dependent Effect; IC50 [24]: 5.2 nM; CLint scaled at 1 µM [25]: 66.7 mL/min/kg; Activity (MCF7 [26]): 16%; inhibition (Tubulin (Homo sapiens) [27]): 71.5%; Activity (MCF7 [28]): Dose-Dependent Effect; Activity (MCF7 [29]): 16%; inhibition in vivo at 5 mg/kg (MCF7 [30]): 41%; Activity (MCF7 [31]): Active; inhibition (A549/TxR [32]): Dose-Dependent Effect; Activity [33]: Non-Toxic |
| COc1c(Br)cc([C@@H]2c3cc4c(cc3C[C@H]3C(=O)NC(=O)N23)OCCO4)cc1Br | 84.6 | 1700 | Dose-Dependent Effect | Active | Non-Toxic | Active | 78.9 | Non-Toxic | Active | Active | Dose-Dependent Effect | 5.3 | Not Active | Active | Active | 5.9 | Dose-Dependent Effect | Active | 10.4 | Active | Activity [17]: Non-Toxic; IC50 (MCF7 [18]): 3.5 nM; Activity (MCF7 [19]): Active; inhibition in vivo at 10 mg/kg (MCF7 [20]): 73.2%; solubility [21]: < 0.5 µg/mL; Activity [22]: Non-Toxic; Activity (MCF7 [23]): Dose-Dependent Effect; IC50 [24]: 7.9 nM; CLint scaled at 1 µM [25]: 167 mL/min/kg; Activity (MCF7 [26]): 16%; inhibition (Tubulin (Homo sapiens) [27]): 69.7%; Activity (MCF7 [28]): Dose-Dependent Effect; Activity (MCF7 [29]): 16%; inhibition in vivo at 5 mg/kg (MCF7 [30]): 20.8%; Activity (MCF7 [31]): Active; inhibition (A549/TxR [32]): Dose-Dependent Effect; Activity [33]: Non-Toxic |
